Data set [1] deals with Septoria tritici. Kind of data set: Example U: preventative in vivo test with Septoria tritici (leaf blotch disease on wheat). To be noted: 500 ppm, evaluation 21 to 28 days after inoculation.
The test system of data set [2] is Septoria tritici. Briefly: Example Z: Septoria tritici test (wheat)/protective, comparison. To be noted: protective, application rate 250 ppm, evaluation 21 days after inoculation. The class given is in vivo. As for the experimental part:
Solvent: 49 parts by weight of N,N-dimethylacetamide Emulsifier: 1 part by weight of alkylaryl polyglycol ether To produce a suitable preparation of active compound, 1 part by weight of active compound or active compound combination is mixed with the stated amounts of solvent and emulsifier, and the concentrate is diluted with water to the desired concentration. To test for protective activity, young plants are sprayed with the preparation of active compound or active compound combination at the stated application rate. After the spray coating has dried on, the plants are sprayed with a spore suspension of Septoria tritici.

For a further data set, the system named is Phakopsora pachyrhizi. Briefly: Example F: Phakopsora test (soya beans)/protective. It is filed as in vivo. The note with it: protective, 100 ppm, evaluation 7 days after inoculation. As for the experimental part: (§1) Solvents: 24.5 parts by weight of acetone • 24.5 parts by weight of dimethylacetamide Emulsifier: 1 part by weight of alkylaryl polyglycol ether To produce a suitable preparation of active compound, 1 part by weight of active compound is mixed with the stated amounts of solvent and emulsifier, and the concentrate is diluted with water to the desired concentration. To test for protective activity, young plants are sprayed with the preparation of active compound at the stated application rate.

The subject of data set [3] is Fusarium nivale (var. majus). Briefly: Example M: Fusarium nivale (var. majus) test (wheat)/protective. It is filed as in vivo. To be noted: protective, 500 ppm, evaluation 5 days after inoculation. As for the experimental part:
Solvent: 49 parts by weight of N,N-dimethylacetamide Emulsifier: 1 part by weight of alkylaryl polyglycol ether To produce a suitable preparation of active compound, 1 part by weight of active compound is mixed with the stated amounts of solvent and emulsifier, and the concentrate is diluted with water to the desired concentration. To test for protective activity, young plants are sprayed with the preparation of active compound at the stated application rate. After the spray coating has dried on, the plants are sprayed with a spore suspension of Fusarium nivale (var. majus).

Data set [4] has as its system Pyricularia oryzae. The class given is in vivo. To be noted: rice, preventative, 500 ppm, evaluation 6 days after inoculation.
The next data set relates to Venturia inaequalis. Briefly: Example D: Venturia test (apple)/protective. To be noted: protective, 100 ppm, evaluation 10 days after inoculation. The class given is in vivo. The protocol: as §1, with “Solvent:” for “Solvents:”, “rate. […] The plants are then placed in a greenhouse at about 21° C. and a relative atmospheric humidity of about 90%.” for “rate.”
In a further data set the test system is Pyrenophora teres. Kind of data set: Example R: preventative in vivo test with Pyrenophora teres (net blotch on barley). To be noted: 500 ppm, evaluation 12 days after inoculation. The protocol: The active compounds tested are prepared by homogenization in a mixture of acetone/Tween/DMSO and then diluted with water to the desired active compound concentration. Barley plants (cultivar “Plaisant”), sown in a 50/50 peat/pozzolana soil substrate and cultivated at 22° C. (12 h)/20° C. (12 h), are treated at the 1-leaf stage (height 10 cm) by spraying with the active compound, prepared as above. As a control, plants are treated with the mixture of acetone/Tween/DMSO/water without the active compound. After 24 hours, the plants are inoculated by spraying the leaves with an aqueous suspension of Pyrenophora teres spores.

The test system of data set [5] is Septoria tritici. Briefly: Example I: Septoria tritici test (wheat)/protective. It is filed as in vivo. The note with it: protective, 500 ppm, evaluation 21 days after inoculation. As for the experimental part: Solvent: 49 parts by weight of N,N-dimethylacetamide Emulsifier: 1 part by weight of alkylaryl polyglycol ether To produce a suitable preparation of active compound, 1 part by weight of active compound is mixed with the stated amounts of solvent and emulsifier, and the concentrate is diluted with water to the desired concentration. To test for protective activity, young plants are sprayed with the preparation of active compound at the stated application rate. After the spray coating has dried on, the plants are sprayed with a spore suspension of Septoria tritici.

Data set [6] has as its system Pyricularia oryzae. It is filed as in vivo. The note with it: rice, protective, 500 ppm, evaluation 7 days after inoculation.
A further data set has as its system Uromyces appendiculatus. Briefly: Example E: Uromyces test (bean)/protective. The class given is in vivo. To be noted: protective, 10 ppm, evaluation 10 days after inoculation.
A short description of data set [7]: log P by HPLC on reversed-phase columns (EEC directive 79/831 Annex V.A8). The class given is physicochemical.

Where “and” joins values, the source holds several entries; their conditions need not be identical. Equal values may be shown once.

In general, chromatographic logP refers to a lipophilicity value derived from retention on a column. Take `OC(Cc1ccccc1Cl)(Cn1ccnc1I)C1(Cl)CC1` (stereo not drawn) [Example 1, 2-(1-chlorocyclopropyl)-1-(2-chlorophenyl)-3-(2-iodo-1H-imidazol-1-yl)propan-2-ol]: the Efficacy % with Septoria tritici [1], with Pyricularia oryzae [4] and with Pyrenophora teres was 100% each time. Besides, the Efficacy in % with Septoria tritici [2] is 86%. Further, the Eff. % with Phakopsora pachyrhizi is 98%; in [3] it was 100%; in the data set with Venturia inaequalis, 100%; with Septoria tritici [5] it was 100%; with Pyricularia oryzae [6] it was 95%; in the data set on Uromyces appendiculatus, 100% and 88%. Besides, the chromatographic logP in data set [7] (pH 2.7, logP) is 2.35; in data set [7] (pH 7.8, logP), 3.38.

Source of the values: patent US9095136B2, “2-IODO imidazole-derivatives” (BAYER INTELLECTUAL PROPERTY GMBH, priority 2011, dated 2015).
